How the values were obtained:
MAP kinase P42/p44 = assay: EGF induced phosphorylation of MAP kinase in 293T cells; format: cell-based, human; settings: 1 μM
Source text: Total RNA or protein were harvested for the expression analysis of specific genes by RT-PCR or Western blot.
Specifically, the inventors tested interferon (IFN), tumor necrosis factor (TNF), epidermal growth factor (EGF) signaling, and treatment with lipopolysacchoride (LPS).

mice = assay: LPS induced lethality in mice; format: in vivo; settings: 15 μg/mouse i.p. 30 min before LPS 80 mg/kg i.p.; 4 days
Source text: The survival of injected animals was closely monitored for 4 days.

293T cells [1] = assay: Intracellular sodium concentration measurement (SBFI) in 293T cells; format: cell-based, human; settings: 1 μM, 30 minutes; from about 20 mM without
Procedure: Bound RIG-I protein was analyzed by western blot (top panel). The expression of IFNβ and Cxcl 10 genes in these cells was also analyzed by RT-PCR (bottom panel). FIG. 3B, high salt concentration inhibits RIG-I helicase activities while the effect on RNA binding is minor. Recombinant RIG-I protein was incubated with dsRNA (67 bp) in the presence of increasing NaCl and KCl concentrations. RNA binding was monitored by native agarose gel analysis (top panel). For the ATPase activities, samples were adjusted to 1 mM ATP and further incubated for 15 min at 37° C., free phosphate released was measured with BIOMOL GREEN reagent. The image of the plate was shown in the bottom panel, and signals from the reading were quantified and graphed in the middle panel. The lanes of the gel, bars of the graph and wells in the ATPase assay are aligned according to experimental conditions. […] 293T cells were loaded with 10 μM SBFI-AM in the presence of 0.02% Pluronic F-127 for 1 hour at 37° C. […] To generate the standard curve, SBFI-Am loaded cells were exposed to solutions with increasing concentrations of sodium in the presence of 10 μM gramicidin for 30 minutes at 37° C. and 340/380 nm fluorescence ratio determined. […]

[2] = system: cytoplasmic RNA polymerase III; assay: Re-transfection of RNA from dsDNA transfected, bufalin treated 293T cells; format: cell-based, human
Procedure: Total RNA from these cells were extracted and re-transfected into fresh 293T cells (8 ug for 2 million cells) for 6 hrs, the induction of IFNβ and Cxcl10 genes from these samples were analyzed by RT-PCR.
Furthermore, RIG-I can also be the target in the dsDNA activation pathway. […] This was achieved through a critical sensor: RNA polymerase III, which transcribes 5′-ppp bearing “panhandle” RNA from the dsDNA template, these nascent RNAs then activated the IFNb expression through the RIG-1-MAVS pathway. See, for example, Ablasser, A. et al. RIG-I-dependent sensing of poly(dA:dT) through the induction of an RNA polymerase III-transcribed RNA intermediate. Nat Immunol 10, 1065-72 (2009) and Chiu, Y. H., Macmillan, J. B. & Chen, Z. J. RNA polymerase III detects cytosolic DNA and induces type I interferons through the RIG-I pathway. Cell 138, 576-91 (2009), content of both of which is herein incorporated by reference.

Namalwa cells = assay: RT-PCR of virus induced IFNβ gene expression in Namalwa cells; format: cell-based, human
Source text: 6 hrs later, cells were harvested and RNA extracted for RT-PCR analysis for the expression of various genes.

293T cells [3] = assay: CellTiter-Blue and CellTiter-Glo viability assays; format: cell-based, human; settings: 1 nM to 10 μM, 8 hours
Procedure: (§1) The cells were also exposed to 0.1% Triton X-100 for 1 hr before the viability assay as a control (FIG. 16E). Data represent mean values±s.d. (n=3). […] Cells were harvested and washed, then stained with Allophycocyanin (APC) conjugated Annexin V and 7-AAD for 15 minutes and subjected to flow cytometry analysis. The number in each graph is the percentile of Annexin V or 7-AAD positive populations. […] Total protein lysates were prepared and separated on SDS-PAGE for Western blot analysis of PARP1, cleaved PARP1, cleaved Caspase3, LC3B, ATP1a1, and beta-actin expression.
8 hours later, 20 μl of the CellTiter-Blue reagent (Promega) was added to each well and incubated for two more hours at 37° C. Fluorescence was recorded from 560 nm excitation/590 nm emission with a Spectramax Plus 384 plate reader. For CellTiter-Glo Luminescent viability assay, […] reagent (Promega) was added to each well and mixed, and incubated for 10 minutes at room temperature. Luminescence was measured with an Analyst AD plate reader.

[4] = system: PRDIII/I element of the IFNβ promoter; format: cell-based, human; settings: 1 uM, compared with no drug treatment
Procedure: (§2) 293T cells were transfected with the IFNβ promoter driving a firefly luciferase reporter together a reference renilla luciferase reporter plasmid. […] Firefly luciferase activities were measured after another 24 hrs and normalized to that of renilla activities. […] Experiments were conducted same as in A, but PRDIV, PRDIII/I and PRDII driving luciferase reporter plasmids were used instead.

293T cells [5] = assay: Flow cytometry analysis of apoptosis (Annexin V / 7-AAD); format: cell-based, human; settings: bufalin 1 μM 8 hours; staurosporine 4 μM 4 hours
Procedure: as §1
Treated cells and untreated control cells were harvested and washed with PBS, and stained with APC conjugated Annexin V and 7-AAD (both from BD Biosciences) in Annexin V binding buffer (10 mM HEPES, pH 7.4, 140 mM NaCl, 2.5 mM CaCl2) for 15 minutes at room temperature, and then subjected to flow cytometry analysis on a FACSCalibur (BD Biosciences).
Cells were harvested and washed, then stained with Allophycocyanin (APC) conjugated Annexin V and 7-AAD for 15 minutes and subjected to flow cytometry analysis. […] 11 for sturosporine.

[6] = system: PRDIV element of the IFNβ promoter; format: cell-based, human; settings: absence of virus infection
Procedure: as §2

IFNβ promoter = assay: cells; format: cell-based, human
Procedure: 293T cells were transfected with the IFNβ promoter driving a firefly luciferase reporter together a reference renilla luciferase reporter plasmid. […] Firefly luciferase activities were measured after another 24 hrs and normalized to that of renilla activities.
293T cells were transfected with an IFNβ promoter driving luciferase reporter, 24 hrs later, increasing amounts (10 nM to 10 uM) of Ouabain (FIG. 8A) or digoxin (FIG. 8B) were added to cells before the Sendai virus infection. Luciferase activities were measured one day later.
Approximately 40,000 293T cells were seeded in a 96 well plate, and co-transfected with IFNβ-110 firefly luciferase reporter and renilla luciferase plasmids (Fitzgerald, K. A. et al. IKKepsilon and TBK1 are essential components of the IRF3 signaling pathway. Nat Immunol 4, 491-6 (2003)). After 24 hrs, cells were treated with various chemicals at the indicated concentrations, and sendai virus infection was initiated one hour later. After another 24 hrs, cells were lysed and subjected to Dual-Glo luciferase assay analysis (Promega) with an Analyst AD plate reader.
Human 293T cells were transfected with the IFNβ promoter driving the expression of luciferase construct. The cells were treated with a library of chemical compounds, and sendai virus (SeV) infection initiated one hour later. Luciferase activity was measured after another 24 hrs of culture. Signals were normalized to the samples not treated with chemicals.

[7] = system: virus inducible genes in 293T cells; assay: Microarray and RT-PCR of gene expression in 293T cells treated with bufalin and/or SeV; format: cell-based, human
Procedure: as §2
Total RNA was extracted for the analysis of IFNβ, CCL5, RIG-I, and beta-actin expression by RT-PCR.
Total RNA was extracted with Trizol reagent (invitrogen). RT-PCR and real time quantitative PCR were conducted according to standard protocols. For microarray experiments, RNA was biotin-labeled with the Illumina TotalPrep RNA Amplification Kit (Ambion) and subjected to the Illumina HumanRef-8 v3.0 BeadChip microarray analysis. Immunofluorescent staining was conducted according to standard protocols: cells were fixed with 4% formaldehyde for 10 min, washed with PBS and permeabilized with 0.1% Triton X-100 in PBS, and incubated with primary antibodies over night. Cells were extensively washed before incubating with FITC-conjugated secondary antibody, mounted with DAPI containing media, and subjected to Epifluorescent or confocal microscopy.

C[C@]12CC[C@H](O)C[C@H]1CC[C@@H]1[C@H]2CC[C@]2(C)[C@@H](c3ccc(=O)oc3)CC[C@]12O [Bufalin]
EGF induced phosphorylation of MAP kinase P42/p44 (MAP kinase P42/p44): no effect
lethality induced by a high dose of LPS (mice): partially reduce
intracellular sodium concentration (293T cells [1]): over 120 mM
activity of cytoplasmic RNA polymerase III [2]: inhibited
virus-induced IFNβ gene expression in Namalwa cells (Namalwa cells): Strong inhibition
cell viability (293T cells [3]): did not severely impair
repression of viral induction of luciferase expression, PRDIII/I reporter [4]: > 86%
Percentile of Annexin V or 7-AAD positive populations (293T cells [5]): 1.95
activity of PRDIV reporter [6]: weakly induced
inhibition of IFNβ expression (IFNβ promoter; 1 uM): more than 90%
Inhibition % @ 10 μM of virus induced IFNβ expression (IFNβ promoter; 10 μM, chemical library screen): 99.2%
IFN expression in the absence of virus infection (IFNβ promoter; 1 and 10 uM, no virus): weakly induced
IC50 (IFNβ promoter; Homo sapiens, HEK-293T, read-out: IC50 for inhibition of virus induced IFNβ expression): 4.3 nM
IFNβ induction in cells preinfected with virus ([7]; SeV 1.5 hours, then 1 μM for 6 hours): strongly inhibits
induction of virus-induced genes (IFNβ, IL-8, IFIT1-3, ISG15, OASL, CXCL10, CCL5) ([7]; bufalin plus SeV, 8 hrs): completely blocked

— patent publication US20140088056A1, “CARDIAC GLYCOSIDES ARE POTENT INHIBITORS OF INTERFERON-BETA GENE EXPRESSION” (priority 2010, published 2014)
